Source: patent US6737383B1, “Herbicidal oxadiazolidines” (priority 1999, dated 2004)

Legend:
[1] = test system: rape; experiment: Test B pre/postemergence rape; type: in vivo, Brassica napus
Summary of the method: (§1)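 Herbicidal effect was estimated by eye on a ten-point control scale after plants spent twelve to sixteen days in a greenhouse following soil or foliar treatment. Foliar sprays targeted plants at one to four leaves; all doses were formulated in a non-phytotoxic solvent with surfactant.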

[2] = test system: sugar beet; experiment: Test B pre/postemergence sugar beet; type: in vivo, Beta vulgaris
Summary of the method: as §1

[3] = test system: purple nutsedge; experiment: Test B pre/postemergence purple nutsedge; type: in vivo, Cyperus rotundus
Summary of the method: as §1

[4] = test system: duck salad; experiment: Test B flood test duck salad; type: in vivo, Heteranthera limosa; conditions: for Plant response rating, Ducksalad (0 to 10 scale, 0 is no effect, 10 is complete control) / Ducksalad plant response rating (0 to 10 scale, 0 is no effect, 10 is complete control): visual evaluation after twelve to sixteen days; for Ducksalad plant response rating (0 to 10 scale, 0 is no effect, 10 is complete control): under heading Pre-emergence
Summary of the method: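 Read-out is a visual response score from 0 (no effect) to 10 (complete control), assigned by comparison with untreated controls. Treatment was applied at the 2-leaf stage, and plants stayed in the greenhouse for twelve to sixteen days before scoring.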

[5] = Postemergence, Rate 62 g/ha, scale 0 to 10, 0 is no effect, 10 is complete control
[6] = Postemergence, Rate 250 g/ha, scale 0 to 10, 0 no effect, 10 complete control
[7] = Preemergence, Rate 31 g/ha, visual rating, scale 0 to 10 (0 no effect, 10 complete control)
[8] = Preemergence, Rate 62 g/ha, scale 0 to 10, 0 is no effect, 10 is complete control
[9] = Preemergence, Rate 125 g/ha, scale 0 to 10 (0 no effect, 10 complete control)
[10] = Preemergence, Rate 250 g/ha, scale of 0 to 10 where 0 is no effect and 10 is complete control
[11] = Rate 31 g/ha, Postemergence, scale 0 to 10
[12] = Rate 125 g/ha, Postemergence, scale 0 to 10, 0 no effect, 10 complete control
[13] = Rate 125 g/ha, Postemergence section (flood test species), scale 0 to 10, 0 no effect, 10 complete control
[14] = Rate 500 g/ha, Postemergence section of Table B, 0 to 10 scale (0 no effect, 10 complete control)
[15] = flood test, listed under Postemergence, Rate 250 g/ha, scale 0 to 10, 0 no effect, 10 complete control
[16] = Postemergence, Rate 250 g/ha, scale 0 to 10
[17] = Postemergence, Rate 500 g/ha, scale of 0 to 10 where 0 is no effect and 10 is complete control
[18] = Preemergence, Rate 62 g/ha, scale of 0 to 10 where 0 is no effect and 10 is complete control
[19] = Preemergence, Rate 125 g/ha, scale of 0 to 10 where 0 is no effect and 10 is complete control
[20] = Preemergence, Rate 250 g/ha, scale 0 to 10, 0 is no effect, 10 is complete control
[21] = Preemergence, Rate 500 g/ha, scale 0 to 10, 0 is no effect, 10 is complete control
[22] = Rate 62 g/ha, Postemergence, scale 0 to 10 (0 no effect, 10 complete control)
[23] = Rate 125 g/ha, Postemergence, scale 0 to 10, 0 is no effect, 10 is complete control
[24] = Rate 62 g/ha, flood test species, Pre-emergence
[25] = Rate 125 g/ha, flood test species
[26] = Rate 250 g/ha, Pre-emergence (flood test species), scale 0 to 10, 0 is no effect, 10 is complete control
[27] = Rate 500 g/ha, Pre-emergence, flood test species, scale 0 to 10 (0 no effect, 10 complete control)
[28] = Postemergence, Rate 125 g/ha, scale of 0 to 10 where 0 is no effect and 10 is complete control
[29] = Preemergence, Rate 62 g/ha, scale 0 to 10 (0 no effect, 10 complete control)
[30] = Preemergence, Rate 500 g/ha, scale 0 to 10 (0 no effect, 10 complete control)
[31] = Rate 62 g/ha, Postemergence, scale of 0 to 10 where 0 is no effect and 10 is complete control
[32] = Rate 500 g/ha, Postemergence, scale 0 to 10, 0 no effect, 10 complete control
[33] = Preemergence, Rate 500 g/ha, scale 0 (no effect) to 10 (complete control)
[34] = Rate 500 g/ha, Postemergence, 0 to 10 scale (0 no effect, 10 complete control)
[35] = Preemergence, Rate 250 g/ha, scale 0 to 10 (0 no effect, 10 complete control)
[36] = Preemergence, Rate 500 g/ha, scale of 0 to 10 where 0 is no effect and 10 is complete control
[37] = Rate 500 g/ha, Postemergence, scale 0 to 10, 0 is no effect, 10 is complete control

CCN(C(=O)n1oc(=O)n(-c2c(C)cccc2C)c1=O)C1CCCCC1 [Compound 27]
0: Rape plant response rating [1, 5] | Rape plant response rating [1, 6] | Rape plant response rating [1, 7] | Plant response rating, Rape [1, 8] | Plant response rating, Rape [1, 9] | Plant response rating, Rape [1, 10] | Rape plant response rating [1, 11] | Rape plant response rating [1, 12] | Sugarbeets plant response rating [2, 5] | Sugarbeets plant response rating [2, 6] | Sugarbeets plant response rating [2, 7] | Plant response rating, Sugarbeets [2, 8] | Plant response rating, Sugarbeets [2, 9] | Plant response rating, Sugarbeets [2, 10] | Sugarbeets plant response rating [2, 12] | Nutsedge plant response rating [3, 5] | Nutsedge plant response rating [3, 6] | Nutsedge plant response rating [3, 7] | Plant response rating, Nutsedge [3, 8] | Plant response rating, Nutsedge [3, 9] | Plant response rating, Nutsedge [3, 10] | Nutsedge plant response rating [3, 11] | Nutsedge plant response rating [3, 12] | Ducksalad plant response rating [4, 5] | Ducksalad plant response rating [4, 13] | Ducksalad plant response rating [4, 14] | Ducksalad plant response rating [4, 15]

CC(C)N(C(=O)n1oc(=O)n(C(C)Cl)c1=O)c1ccccc1 (stereo not drawn) [Compound 438]
2: Rape plant response rating [1, 21]
0: Rape plant response rating [1, 16] | Rape plant response rating [1, 17] | Plant response rating, Rape [1, 18] | Plant response rating, Rape [1, 19] | Rape plant response rating [1, 20] | Rape plant response rating [1, 22] | Rape plant response rating [1, 23] | Sugarbeets plant response rating [2, 16] | Sugarbeets plant response rating [2, 17] | Plant response rating, Sugarbeets [2, 18] | Plant response rating, Sugarbeets [2, 19] | Sugarbeets plant response rating [2, 20] | Sugarbeets plant response rating [2, 21] | Sugarbeets plant response rating [2, 22] | Sugarbeets plant response rating [2, 23] | Nutsedge plant response rating [3, 16] | Nutsedge plant response rating [3, 17] | Plant response rating, Nutsedge [3, 18] | Plant response rating, Nutsedge [3, 19] | Nutsedge plant response rating [3, 20] | Nutsedge plant response rating [3, 22] | Nutsedge plant response rating [3, 23] | Plant response rating, Ducksalad (0 to 10 scale, 0 is no effect, 10 is complete control) [4, 24] | Ducksalad plant response rating (0 to 10 scale, 0 is no effect, 10 is complete control) [4, 25] | Ducksalad plant response rating [4, 26] | Ducksalad plant response rating [4, 27]

Cc1nn(C)c(Cl)c1-n1c(=O)on(C(=O)N(c2ccccc2)C(C)C)c1=O [Compound 121]
0: Rape plant response rating [1, 28] | Rape plant response rating [1, 29] | Plant response rating, Rape [1, 9] | Plant response rating, Rape [1, 10] | Rape plant response rating [1, 30] | Rape plant response rating [1, 31] | Sugarbeets plant response rating [2, 28] | Sugarbeets plant response rating [2, 29] | Sugarbeets plant response rating [2, 31] | Nutsedge plant response rating [3, 28] | Nutsedge plant response rating [3, 6] | Nutsedge plant response rating [3, 29] | Plant response rating, Nutsedge [3, 9] | Plant response rating, Nutsedge [3, 10] | Nutsedge plant response rating [3, 30] | Nutsedge plant response rating [3, 31] | Nutsedge plant response rating [3, 32] | Ducksalad plant response rating ([4]; Postemergence (flood test species), Rate 125 g/ha, scale of 0 to 10 where 0 is no effect and 10 is complete control) | Ducksalad plant response rating ([4]; Rate 62 g/ha, Postemergence section, flood test species, scale of 0 to 10 where 0 is no effect and 10 is complete control) | Ducksalad plant response rating ([4]; Rate 250 g/ha, headed Pre-emergence (flood test species), scale 0 to 10 (0 no effect, 10 complete control)) | Plant response rating, Ducksalad ([4]; Rate 500 g/ha, headed Pre-emergence (flood test species), scale 0 to 10 (0 no effect, 10 complete control)) | Ducksalad plant response rating ([4]; Rate 500 g/ha, listed under Postemergence (flood test species), scale 0 to 10, 0 no effect, 10 complete control) | Ducksalad plant response rating ([4]; Rate 1000 g/ha, Pre-emergence (as headed), scale 0 to 10) | Ducksalad plant response rating ([4]; Rate 2000 g/ha, Pre-emergence (as headed), scale 0 to 10) | Ducksalad plant response rating [4, 15]
3: Rape plant response rating [1, 32] | Sugarbeets plant response rating (0 to 10 scale) ([2]; Preemergence, Rate 125 g/ha, 0 is no effect, 10 is complete control)
7: Plant response rating, Sugarbeets [2, 10] | Sugarbeets plant response rating [2, 30]
4: Plant response rating, Sugarbeets ([2]; Rate 250 g/ha, Postemergence, scale 0 to 10, 0 is no effect, 10 is complete control) | Sugarbeets plant response rating [2, 32]
2: Rape plant response rating [1, 6]

CC(C)N(C(=O)n1oc(=O)n(CC2=NOCC2)c1=O)c1ccc(F)cc1 [Compound 466]
0: Rape plant response rating [1, 16] | Plant response rating, Rape [1, 18] | Plant response rating, Rape [1, 19] | Rape plant response rating [1, 20] | Rape plant response rating [1, 22] | Rape plant response rating [1, 23] | Sugarbeets plant response rating [2, 16] | Plant response rating, Sugarbeets [2, 18] | Plant response rating, Sugarbeets [2, 19] | Sugarbeets plant response rating [2, 22] | Sugarbeets plant response rating [2, 23] | Nutsedge plant response rating [3, 16] | Plant response rating, Nutsedge [3, 18] | Plant response rating, Nutsedge [3, 19] | Nutsedge plant response rating [3, 20] | Nutsedge plant response rating [3, 22] | Nutsedge plant response rating [3, 23] | Plant response rating, Ducksalad (0 to 10 scale, 0 is no effect, 10 is complete control) [4, 24] | Ducksalad plant response rating (0 to 10 scale, 0 is no effect, 10 is complete control) [4, 25] | Ducksalad plant response rating [4, 26] | Ducksalad plant response rating [4, 27]
3: Rape plant response rating [1, 21]
2: Sugarbeets plant response rating [2, 20]
4: Sugarbeets plant response rating [2, 21]

Cc1ccccc1-n1c(=O)on(C(=O)N(c2ccc([N+](=O)[O-])cc2)C(C)C)c1=O [Compound 44]
0: Rape plant response rating [1, 5] | Rape plant response rating [1, 6] | Plant response rating, Rape [1, 8] | Plant response rating, Rape [1, 9] | Plant response rating, Rape [1, 10] | Rape plant response rating [1, 33] | Rape plant response rating [1, 12] | Rape plant response rating [1, 34] | Sugarbeets plant response rating [2, 5] | Sugarbeets plant response rating [2, 6] | Plant response rating, Sugarbeets [2, 8] | Plant response rating, Sugarbeets [2, 9] | Plant response rating, Sugarbeets [2, 10] | Sugarbeets plant response rating [2, 33] | Sugarbeets plant response rating [2, 12] | Nutsedge plant response rating [3, 5] | Nutsedge plant response rating [3, 6] | Plant response rating, Nutsedge [3, 8] | Plant response rating, Nutsedge [3, 9] | Plant response rating, Nutsedge [3, 10] | Nutsedge plant response rating [3, 33] | Nutsedge plant response rating [3, 12] | Nutsedge plant response rating [3, 34] | Ducksalad plant response rating [4, 5] | Ducksalad plant response rating [4, 13] | Ducksalad plant response rating [4, 14] | Ducksalad plant response rating [4, 15]

CC(C)N(C(=O)n1oc(=O)n(CC2CCCCO2)c1=O)c1ccc(Cl)cc1 (stereo not drawn) [Compound 660]
3: Plant response rating, Rape [1, 35]
0: Plant response rating, Rape [1, 5] | Rape plant response rating [1, 28] | Rape plant response rating [1, 18] | Rape plant response rating [1, 19] | Rape plant response rating [1, 37] | Plant response rating, Sugarbeets [2, 5] | Sugarbeets plant response rating [2, 28] | Sugarbeets plant response rating [2, 18] | Sugarbeets plant response rating [2, 19] | Plant response rating, Sugarbeets [2, 35] | Plant response rating, Sugarbeets [2, 36] | Sugarbeets plant response rating [2, 37] | Plant response rating, Nutsedge [3, 5] | Nutsedge plant response rating [3, 28] | Nutsedge plant response rating [3, 18] | Nutsedge plant response rating [3, 19] | Plant response rating, Nutsedge [3, 35] | Plant response rating, Nutsedge [3, 36] | Nutsedge plant response rating [3, 37] | Plant response rating, Ducksalad (0 to 10 scale, 0 is no effect, 10 is complete control) [4, 24] | Ducksalad plant response rating (0 to 10 scale, 0 is no effect, 10 is complete control) [4, 25] | Ducksalad plant response rating [4, 26] | Ducksalad plant response rating ([4]; Rate 500 g/ha, Pre-emergence section of Table B, 0 to 10 scale (0 no effect, 10 complete control))
4: Plant response rating, Rape [1, 36]
